Experimental findings from ChEMBL document CHEMBL1201862, “PubChem BioAssay data set” (2004) are described below.

Holding throughout (test): NCI-60 cell line screen, 48 h
Test [1] relates to NCI-H23.
Test [2] concerns ACHN.
The subject of test [3] is SF-539.
The test system of test [4] is NCI-H522.
For test [5], the system named is KM12.
The test system of test [6] is PC-3.
Test [7] relates to SN12C.
Test [8] has as its system SK-MEL-2.
Test [9] concerns K562.
In test [10] the test system is SK-MEL-5.
The test system of test [11] is OVCAR-4.
Test [12] has as its system HOP-92.
In test [13] the test system is SW-620.
Test [14] has as its system UACC-257.
Test [15] relates to UO-31.
Test [16] deals with OVCAR-8.
Test [17] deals with MDA-N.
In test [18] the test system is SNB-75.
The subject of test [19] is NCI/ADR-RES.
For test [20], the system named is UACC-62.

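The compound was tested at five concentrations on cells cultured in 96-well plates, with a 48-hour exposure period. GI50 marks 50% less growth.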 Activity calls are given as the source filed them. No stated cut-off is given here; in the data, active = GI50 up to about 1.1 µM and inactive = higher.

Regarding `CC(=O)OC1C(C)OC(OC2C[C@](O)(C(C)=O)Cc3c(O)c4c(c(O)c32)C(=O)c2ccccc2C4=O)C(F)C1OC(C)=O` (stereo not given in full), the GI50 in test [1] is 0.245 µM (active); in test [2], 0.114 µM (active); in test [3], 0.194 µM (active); in test [4], 0.61 µM (active); in [5], 1.85 µM (inactive); in test [6], 0.971 µM (active). The GI50 in test [7] was 0.281 µM (active); in test [8] it was 3.11 µM (inactive); in [9], 1.63 µM (inactive); in [10], 0.408 µM (active); in test [11], 3.74 µM (inactive); in test [12], 0.457 µM (active). The GI50 is 0.495 µM (active) in [13]; 1.8 µM (inactive) in test [14]; 0.115 µM (active) in test [15]; 0.543 µM (active) in [16]; 1.88 µM (inactive) in [17]; 0.417 µM (active) in [18]. Besides, the GI50 in test [19] was 1.45 µM (inactive); in test [20], 0.387 µM (active).
`C=C1CC(C)(COc2ccc3c(C)cc(=O)oc3c2)OC1=O` (stereo not given): the GI50 was 1.57 µM (inactive) in test [1]; 2.08 µM (inactive) in test [2]; 0.951 µM (active) in [3]; 0.276 µM (active) in test [4]; 3.66 µM (inactive) in test [5]; 2.39 µM (inactive) in test [6]. For the same compound, the GI50 in [7] was 3.86 µM (inactive); in test [8] it was 1.65 µM (inactive); in test [9], 0.313 µM (active); in [10] it was 1.31 µM (inactive); in test [11], 2.62 µM (inactive); in test [12], 1.09 µM (active). Also, the GI50 in test [13] was 0.431 µM (active); in test [14] it was 1.25 µM (inactive); in test [15], 6.7 µM (inactive); in test [16] it was 3.17 µM (inactive); in test [17], 0.695 µM (active); in test [18] it was 5.42 µM (inactive). Besides, the GI50 in test [19] was 1.95 µM (inactive); in test [20], 1.69 µM (inactive).
In the case of `CC1=NN(c2nc(N)nc(/C(C#N)=C/c3ccc([N+](=O)[O-])o3)n2)C(C)(C)C1`, the GI50 in test [1] is 3.45 µM (inactive); in test [2], 1.81 µM (inactive); in [3], 3.22 µM (inactive); in [4], 1.66 µM (inactive); in test [5], 13.9 µM (inactive); in test [6], 9.68 µM (inactive). The GI50 in test [7] was 1.88 µM (inactive); in [8], 6.34 µM (inactive); in test [9] it was 0.315 µM (active); in [10] it was 5.4 µM (inactive); in test [11], 10.2 µM (inactive); in [12] it was 1.95 µM (inactive). The GI50 in test [13] is 1.76 µM (inactive); in [14], 10 µM (inactive); in test [15], 2.92 µM (inactive); in test [16], 2.51 µM (inactive); in [17] it was 3.05 µM (inactive); in test [18], 2.85 µM (inactive). Moreover, the GI50 in test [19] is 10.8 µM (inactive); in test [20], 2.19 µM (inactive).
With `CCc1oc2ccccc2c1C(=O)c1cc(Br)c(O)c(Br)c1` [BENZBROMARONE], the GI50 was 24.5 µM (inactive) in [1]; 17.5 µM (inactive) in [2]; 17.1 µM (inactive) in test [3]; 19.9 µM (inactive) in test [4]; 20.7 µM (inactive) in test [5]; 20 µM (inactive) in test [6]. In addition, the GI50 in test [7] is 26 µM (inactive); in test [8], 19.8 µM (inactive); in test [9] it was 30.9 µM (inactive); in [10], 17.4 µM (inactive); in [11], 30 µM (inactive); in test [12], 24.1 µM (inactive). Moreover, the GI50 is 35.6 µM (inactive) in [13]; 19.3 µM (inactive) in test [14]; 21.6 µM (inactive) in test [15]; 32.7 µM (inactive) in [16]; 30.2 µM (inactive) in test [17]; 18.9 µM (inactive) in test [18]. Further, the GI50 in test [19] is 31.6 µM (inactive); in test [20], 16.9 µM (inactive).
Take `O=C(O)c1cccc(CC(Br)C(=O)O)c1` (stereo not given): the GI50 in test [1], in test [2], in [3], in [4], in test [5] and in test [6] was > 100 µM (inactive) throughout. Further, the GI50 in [7], in [8], in test [9], in [10], in test [11] and in [12] was > 100 µM (inactive) each time. Further, the GI50 in test [13], in test [14], in test [15], in [16], in [17] and in test [18] was > 100 µM (inactive) in each case. The GI50 in test [19] and in test [20] was > 100 µM (inactive) each time.
Consider `CCC12C=CCN3CCC4(c5cc(C(c6ccc(OC)cc6)C6Cc7ccccc7N6)c(OC)cc5N(C)C4C(O)(C(=O)OC)C1O)C32` (stereo not given), for which the GI50 is 27 µM (inactive) in [1]; 19.2 µM (inactive) in test [2]; 21 µM (inactive) in test [3]; 16.4 µM (inactive) in [4]; 5.89 µM (inactive) in test [5]; 12.6 µM (inactive) in test [6]. In addition, the GI50 in test [7] was 37.4 µM (inactive); in test [8], 15.3 µM (inactive); in [9], 3.42 µM (inactive); in test [10], 12.1 µM (inactive); in [11], 9.33 µM (inactive); in [12], 2.81 µM (inactive). For the same compound, the GI50 in test [13] was 21.5 µM (inactive); in test [14] it was 20.5 µM (inactive); in test [15], 10.2 µM (inactive); in test [16] it was 15.1 µM (inactive); in test [17], 18.8 µM (inactive); in test [18], 3.66 µM (inactive). In addition, the GI50 in test [19] is 26.1 µM (inactive); in [20], 11.8 µM (inactive).
As to `CCCCCCCCCCCCCCCCCCOCC(COCCOCC[N+]1(CCCCCC(=O)[O-])CCCC1)Oc1ncccn1` (stereo not given), the GI50 in test [1] was 4.88 µM (inactive); in [2], 10 µM (inactive); in test [3], 4.36 µM (inactive); in test [4], 1.34 µM (inactive); in [5] it was 2.58 µM (inactive); in test [6] it was 0.643 µM (active). Also, the GI50 in test [7] was 4.44 µM (inactive); in test [8], 6.05 µM (inactive); in [9] it was 2.19 µM (inactive); in test [10], 4.22 µM (inactive); in test [11], 2.2 µM (inactive); in [12], 1.05 µM (active). Further, the GI50 was 4.57 µM (inactive) in [13]; 8.02 µM (inactive) in test [14]; 10.1 µM (inactive) in test [15]; 2.56 µM (inactive) in test [16]; 10.5 µM (inactive) in test [17]; 2.61 µM (inactive) in [18]. Moreover, the GI50 was 15.4 µM (inactive) in test [19] and 3.35 µM (inactive) in [20].
`COC(=O)[C@@H]1[C@@H]2NC(=S)N[C@@]1(C)Oc1ccccc12`: the GI50 in test [1] was 42.6 µM (inactive); in [2], 87.9 µM (inactive); in test [3], 37.7 µM (inactive); in [4], 31.6 µM (inactive); in test [5] it was 29.7 µM (inactive); in test [6] it was 63.5 µM (inactive). Also, the GI50 is 46.2 µM (inactive) in test [7]; > 100 µM (inactive) in [8]; 29.5 µM (inactive) in [9]; 42 µM (inactive) in [10]; > 100 µM (inactive) in test [11]; 49.9 µM (inactive) in test [12]. In addition, the GI50 in test [13] is 55.7 µM (inactive); in [14], > 100 µM (inactive); in test [15] it was > 100 µM (inactive); in test [16] it was 51.5 µM (inactive); in [17], 18.4 µM (inactive); in [18], 27.4 µM (inactive). For the same compound, the GI50 in [19] is 30.2 µM (inactive); in test [20], 78.3 µM (inactive).
With `O[C@H]1[C@H](O)[C@@H](O)[C@@]2(O)CC[C@@H]1N2`, the GI50 in test [1], in [2], in test [3], in test [4], in test [5] and in test [6] was > 100 µM (inactive) throughout. The GI50 in test [7], in test [8], in [9], in test [10], in [11] and in [12] was > 100 µM (inactive) throughout. Besides, the GI50 in test [13], in test [14], in [15], in test [16], in [17] and in [18] was > 100 µM (inactive) each time. Further, the GI50 in test [19] and in [20] was > 100 µM (inactive) in each case.
Regarding `O=C(NNc1ccnc2cc(Cl)ccc12)/C(=C\c1ccccc1Cl)NC(=O)c1ccccc1`, the GI50 is 54.7 µM (inactive) in test [1]; 25.4 µM (inactive) in [2]; 27.7 µM (inactive) in [3]; 18.5 µM (inactive) in test [4]; 20.5 µM (inactive) in [5]; 36.1 µM (inactive) in test [6]. For the same compound, the GI50 is 38.1 µM (inactive) in [7]; 19.4 µM (inactive) in [8]; 34.6 µM (inactive) in [9]; 23.8 µM (inactive) in [10]; 32.8 µM (inactive) in [11]; 35.6 µM (inactive) in test [12]. In addition, the GI50 in test [13] is 37.9 µM (inactive); in [14], 34.1 µM (inactive); in test [15], 38.9 µM (inactive); in [16], 20 µM (inactive); in [17], 37.3 µM (inactive); in test [18], 39.3 µM (inactive). Further, the GI50 was 24.9 µM (inactive) in test [19] and 21 µM (inactive) in test [20].
